Consider three compounds from EP0288563B1, “CYCLIC AMINE DERIVATIVES” (Eisai Co., Ltd., priority 1986, dated 1988).

The structures appear in SMILES notation. Where a name gives a salt, the structure may show the parent alone.

Assay [1] deals with nerve cells in the CAI region of the hippocampus. Put plainly: Effect of protecting cells from disorder after ischemia (nerve cell count in hippocampus). Type of assay: in vivo, Mongolian gerbils. Particulars: counted after one week, normal group 287 ± 6, control group 21 ± 10. How it is done: Carotid arteries on both sides of Mongolian gerbils were blocked to realize cerebral ischemia for 5 min. As a result, the nerve cells in the CAI region of the hippocampus disappeared extensively [Karino, T.: Brain Res., 239, 57 to 69 (1982)].
The compound of the present invention was administered orally to them, while a 5% acacia suspension was administered to the control group. After one hour, the ischemia was realized for 5 min. After one week, the animal was perfused and fixed with 4% neutral formalin transcardially. The treated sample was embedded in paraffin and cut to obtain slices having a thickness of 3 µm. The slices were dyed with hematoxylin-eosin and the number of the nerve cells in the CAI region of the hippocampus of each slice was counted.
The nerve cell density in the CAI region of the hippocampus was 287/mm in the normal (pseudo-operation) group and that of the control group was as small as 21/mm. Namely, a serious disappearance of the cell was caused by the 5-min ischemia. […]

Assay [2] deals with ischemic brain. Nature of the assay: Effect of protecting ischemic brain (survival time after ligation of both carotid arteries). The class given is in vivo, ICR mice. Particulars: for Average survival time (min) (average ± S.E.): maximum 6 h, control group 149.9 ± 25.8; for %: survival time relative to control group (100). How it is done:
Carotid arteries of both sides of ICR mice (6 to 8 weeks old) were exposed under halothane anesthesia and ligated. The mice thus treated had stroke symptoms such as jumping, rolling and convulsion and almost all of them died within 24 h.
The compound of the present invention was administered orally to the mice one hour before the ligation and the survival time (maximum: 6 h) was examined as an index of the effect of protecting eschemic brain. In this experiment, the compound was used in the form of a 5% suspension in acacia and a 5% acacia solution was given to the control group.

Where [3] appears, read: 10 mg/kg p.o. one hour before 5-min ischemia.
Setting [4] is: 30 mg/kg p.o. one hour before 5-min ischemia.
The mark [5] stands for this setting: 3 mg/kg p.o. one hour before ligation.
Setting [6] is: 10 mg/kg p.o. one hour before ligation.
Where [7] appears, read: 30 mg/kg p.o. one hour before ligation.

As for `O=C(CN1CCC(C(=O)c2ccc(F)cc2)CC1)c1ccc2ccccc2c1` [Example 12, 2-[4-p-Fluorobenzoyl)piperidinyl]-2'-acetonaphthone hydrochloride], the “Nerve cell density (number/mm)” value in assay [1] (3 mg/kg p.o. one hour before 5-min ischemia) is recorded as 62 ± 26 number/mm; in assay [1] (setting [3]), 75 ± 32 number/mm; in assay [1] (setting [4]) it was 83 ± 32 number/mm. For the same compound, the “Average survival time (min) (average ± S.E.)” value (shortened to “Average survival time (min)”) in assay [2] (setting [5]) was determined as 213.7 ± 52.3 min; in assay [2] (setting [6]), 181.4 ± 43.6 min; in assay [2] (setting [7]), 191.1 ± 54.3 min. Moreover, the “%” value is 143% in assay [2] (3 mg/kg p.o.), 121% in assay [2] (10 mg/kg p.o.) and 128% in assay [2] (30 mg/kg p.o.).
For the compound `c1ccc(CC2CCN(CCc3ccc4ccccc4c3)CC2)cc1` [Example 73], the “Nerve cell density (number/mm)” value in assay [1] (setting [3]) is 69 ± 21 number/mm; in assay [1] (setting [4]), 49 ± 8 number/mm. Further, the “Average survival time (min)” value in assay [2] (setting [6]) turned out to be 150.4 ± 57.6 min; in assay [2] (setting [7]), 275.2 ± 58.2 min. The “%” value turned out to be 100% in assay [2] (10 mg/kg p.o.) and 184% in assay [2] (30 mg/kg p.o.).
`O=C(CN1CCC(=Cc2ccc(F)cc2)CC1)c1ccc2ccccc2c1` [Example 74]: the “Nerve cell density (number/mm)” value in assay [1] (setting [4]) came out at 62 ± 5 number/mm. Moreover, the “Average survival time (min)” value in assay [2] (setting [5]) was 143.3 ± 39.6 min; in assay [2] (setting [6]), 205.1 ± 43.6 min; in assay [2] (setting [7]), 194.2 ± 49.7 min. The “%” value was 96% in assay [2] (3 mg/kg p.o.), 137% in assay [2] (10 mg/kg p.o.) and 130% in assay [2] (30 mg/kg p.o.).
